Source: PMC6150229, “Simultaneous Determination of Twenty-Five Compounds in Rat Plasma Using Ultra-High Performance Liquid Chromatography-Polarity Switching Tandem Mass Spectrometry and Its Application to a Pharmacokinetic Study” (Molecules : A Journal of Synthetic Chemistry and Natural …, 2017)
Read-outs that look alike come from different tables or passages of the source.

Assays:
[1] = in vivo; conditions: male, Sprague-Dawley, rat, po, 8 g/kg; for AUC(0-t): AUC0–t; for AUC(0-inf): AUC0–∞
Experimental: (§1) Twelve male Spargue-Dawley rats (200 ± 20 g) were supplied by Vital River Laboratory Animal Technology Co. Ltd. (Beijing, China). […] The rats were acclimated under a humidity (50%) controlled room at 22–25 °C with a 12 h light-dark cycle, and standard diet and water were provided ad libitum for one week.
(§2) Afterwards, all rats were randomly divided into two groups, namely sham and model groups. The myocardial ischemia model was simulated by left anterior descending (LAD) coronary artery ligation [12], whilst the rats belonging to the sham group received the similar surgery, however no actual ligation in LAD. All animals were fasted overnight with free access to water prior to oral dosing. Aliquots (250 μL) of blood were sampled at 0 (pre-dose), 0.08, 0.25, 0.5, 0.75, 1, 1.5, 2, 4, 6, 8, 12, and 24 h from venous around eye socket into heparinized tubes after a single oral dosing of 8.0 g/kg of QSKL and the collected blood samples were immediately subjected for 4000 rpm centrifugation for 10 min at 4 °C to harvest the plasma samples. Each 100 μL aliquot of plasma sample was transferred into another Eppendorf tube and stored at −80 °C till use.
(§3) When analysis, 300 μL of internal standards (200 ng/mL for either internal standard) fortified ACN, corresponding to three volumes of plasma, was spiked into each thawed plasma sample and mixed thoroughly. Then, the resulting samples were processed as those calibration samples.
(§4) Individual animal plasma concentrations versus time dataset were subjected to a non-compartmental pharmacokinetic analysis using WinNonlin software (ver. 6.4, Pharsight Corp., Sunnyvale, CA, USA). The pharmacokinetic parameters of each analyte including the maximum plasma concentration (Cmax), the time at which Cmax was achieved (Tmax), the terminal elimination half-life (t1/2), and the area under the plasma concentration versus time curve (AUC0→t along with AUC0→∞) were calculated. Moreover, Lz corresponding to the ratio of the dosage and AUC0→∞, as well as mean residence time (MRT) that was defined as the ratio of the area under the first moment curve from time 0 to infinity (AUMC0→∞/AUC0→∞) was also calculated. All results are expressed as mean ± SD. Comparisons regarding the pharmacokinetic parameters were carried out between sham and model groups using Student’s t-test, and p values less than 0.05 were considered to be significant.

[2] = male, Sprague-Dawley, rat, in vivo, po, 8 g/kg
Experimental: as §1, §2, §3, §4

[3] = Pharmacokinetic study in sham and myocardial ischemia model rats after a single oral dose of QSKL (UHPLC-psMS/MS of plasma, non-compartmental analysis); conditions: for distribution in rat plasma (quantifiable or not): QSKL-treated plasma samples, sham and model rats, single oral dose 8.0 g/kg; for AUC(0-inf): AUC0–∞
Experimental: as §1, §2, §3, §4

[4] = model group (MG, myocardial ischemia) rats, oral administration of QSKL, plasma, mean ± SD, n = 6
[5] = sham group (SG) rats, oral administration of QSKL, plasma, mean ± SD, n = 6
[6] = t1/2, model group (MG, myocardial ischemia) rats, oral administration of QSKL, plasma, mean ± SD, n = 6
[7] = t1/2, sham group (SG) rats, oral administration of QSKL, plasma, mean ± SD, n = 6
[8] = male, Sprague-Dawley, rat, plasma, po, 8 g/kg, model group (MG, myocardial ischemia) rats, oral administration of QSKL, plasma, mean ± SD, n = 6
[9] = male, Sprague-Dawley, rat, plasma, po, 8 g/kg, sham group (SG) rats, oral administration of QSKL, plasma, mean ± SD, n = 6

AUC(0-t) [1] [ng·h/mL] | AUC(0-inf) [1] [ng·h/mL] | Tmax [1] [min] | AUC0–t [2] [ng·h/mL] | MRT [1] [h] | half-life ([1]; t1/2) [min] | MRT [2] [h] | Compound | Cmax [1] [ng/mL] | AUC0–∞ [2] [ng·h/mL] | AUC(0-t) [1, 4] [ng·h/mL] | AUC(0-t) [1, 5] [ng·h/mL] | AUC(0-inf) [1, 4] [ng·h/mL] | AUC(0-inf) [1, 5] [ng·h/mL] | Cmax [1, 4] [ng/mL] | Cmax [1, 5] [ng/mL] | MRT [1, 4] [h] | MRT [1, 5] [h] | Tmax [1, 4] [min] | Tmax [1, 5] [min] | distribution in rat plasma (quantifiable or not) [3] | also measured
– | – | – | – | – | – | – | COCC12CCC(OC)C34C5CC6(O)C(OC)C(O)C(O)(C5C6OC(=O)c5ccccc5)C(C(OC)C13)C4N(C)C2 (centres unmarked) [benzoylhypaconine] | – | – | 0.926 ± 0.279 | 0.985 ± 0.167 | 1.66 ± 0.331 | 1.78 ± 0.905 | 0.466 ± 0.302 | 0.284 ± 0.209 | 23.6 ± 7.39 | 22.7 ± 14.9 | 25.8 ± 21.6 | 28.8 ± 19.8 | quantifiable in most samples | half-life [1, 6]: 978 ± 328 min; half-life [1, 7]: 936 ± 544 min
0.406 ± 0.055 | 1.06 ± 0.47 | 30 ± 19.8 | 0.493 ± 0.147 | 50.5 ± 26.9 | 2190 ± 1010 | 29.4 ± 17.5 | O=c1cc(-c2ccc(O)c(O)c2)oc2cc(O[C@@H]3O[C@H](CO)[C@@H](O)[C@H](O)[C@H]3O)cc(O)c12 [luteoloside] | – | 0.869 ± 0.272 | – | – | – | – | – | – | – | – | – | – | – | –
3.62 ± 0.763 | 5.58 ± 2.56 | 480 | 4.54 ± 1.58 | 18.2 ± 2.76 | 642 ± 72 | – | Cc1coc2c1C(=O)C(=O)c1c-2ccc2c(C)cccc12 [tanshinone I] | 0.297 ± 0.115 | – | – | – | – | – | – | – | – | – | – | – | – | –
2.11 ± 1.73 | 2.22 ± 1.98 | – | 2.53 ± 0.662 | 8.48 ± 1.07 | 234 ± 61.8 | 9.83 ± 4.37 | O=C1C[C@@H](c2ccc(O)cc2)Oc2cc(O)ccc21 [liquiritigenin] | 0.347 ± 0.276 | 2.81 ± 0.98 | – | – | – | – | – | – | – | – | – | – | – | –
– | – | – | – | – | – | – | COC[C@@]12CC[C@H](OC)[C@]34C(C([C@H](OC)[C@H]13)[C@]1(OC(C)=O)[C@H]3[C@@H](OC(=O)c5ccccc5)[C@](O)(C[C@H]34)[C@@H](OC)[C@@H]1O)N(C)C2 [hypaconitine] | – | – | 0.567 ± 0.26 | 0.824 ± 0.249 | 0.552 ± 0.148 | 0.967 ± 0.303 | 0.156 ± 0.134 | 0.101 ± 0.0328 | 11.9 ± 3.73 | 11.7 ± 2.83 | 92.4 ± 42.6 | 125 ± 96 | quantifiable in most samples | half-life [1, 6]: 447 ± 70.8 min; half-life [1, 7]: 520 ± 103 min
– | – | – | – | – | – | – | O=C(/C=C/c1ccc(O[C@@H]2O[C@H](CO)[C@@H](O)[C@H](O)[C@H]2O)cc1)c1ccc(O)cc1O [isoliquiritin] | – | – | 1.58 ± 0.493 | 1.39 ± 0.36 | 1.86 ± 0.632 | 1.64 ± 0.474 | 0.85 ± 0.761 | 0.389 ± 0.167 | 10.2 ± 4.65 | 10.5 ± 3.13 | 25.8 ± 21.6 | 21.6 ± 18.6 | quantifiable in most samples | half-life [1, 6]: 497 ± 204 min; half-life [1, 7]: 376 ± 58.6 min
– | – | – | – | – | – | – | COCC12CN(C)C3C4C(OC)C1C3(C(OC)CC2O)C1CC2(O)C(OC)C(O)C4(O)C1C2OC(=O)c1ccccc1 (centres unmarked) [benzoylmesaconine] | – | – | 7.34 ± 7.1 | 5.82 ± 2.93 | 11.1 ± 11 | 8.3 ± 6.14 | 3.1 ± 2.49 | 1.15 ± 0.778 | 13.7 ± 6.58 | 20.1 ± 10.3 | 28.2 ± 19.8 | 25.2 ± 22.2 | quantifiable in most samples | half-life [1, 6]: 586 ± 322 min; half-life [1, 7]: 780 ± 380 min
6.01 ± 1.52 | 7.37 ± 2.08 | 17.4 ± 10.2 | 7.66 ± 2.60 | 10.3 ± 2.3 | 346 ± 21.6 | 10.2 ± 5.77 | O=C1C[C@@H](c2ccc(O[C@@H]3O[C@H](CO)[C@@H](O)[C@H](O)[C@H]3O)cc2)Oc2cc(O)ccc21 [liquiritin] | – | 9.14 ± 4.02 | – | – | – | – | – | – | – | – | – | – | – | –
– | – | – | – | – | – | – | C=CC(C)(C)c1cc(/C=C/C(=O)c2ccc(O)cc2)c(OC)cc1O [licochalcone A] | – | – | – | – | – | – | – | – | – | – | – | – | unquantifiable in most QSKL-treated samples | –
– | – | – | – | – | – | – | CC1(C)[C@@H](O[C@H]2O[C@H](C(=O)O)[C@@H](O)[C@H](O)[C@H]2O[C@@H]2O[C@H](C(=O)O)[C@@H](O)[C@H](O)[C@H]2O)CC[C@]2(C)[C@H]3C(=O)C=C4[C@@H]5C[C@@](C)(C(=O)O)CC[C@]5(C)CC[C@@]4(C)[C@]3(C)CC[C@@H]12 [glycyrrhizic acid] | – | – | – | – | – | – | – | – | – | – | – | – | quantifiable in most samples | AUC(0-t) ([3]; male, Sprague-Dawley, rat, plasma, po, 8 g/kg, AUC0–t, model group (MG, myocardial ischemia) rats, oral administration of QSKL, plasma, mean ± SD, n = 6): 72.8 ± 27.8 ng·h/mL; AUC(0-t) ([3]; male, Sprague-Dawley, rat, plasma, po, 8 g/kg, AUC0–t, sham group (SG) rats, oral administration of QSKL, plasma, mean ± SD, n = 6): 37.9 ± 7.11 ng·h/mL; AUC(0-inf) [3, 8]: 170 ± 69.1 ng·h/mL; AUC(0-inf) [3, 9]: 130 ± 69.1 ng·h/mL; AUC(0-t) ([3]; male, Sprague-Dawley, rat, plasma, po, 8 g/kg, AUC0→t, model (myocardial ischemia, LAD ligation) rats, single oral dose of 8.0 g/kg QSKL, mean ± SD, n = 6): 72.8 ± 27.8 ng·h/mL; AUC(0-t) ([3]; male, Sprague-Dawley, rat, plasma, po, 8 g/kg, AUC0→t, sham rats, single oral dose of 8.0 g/kg QSKL, mean ± SD, n = 6): 37.9 ± 7.11 ng·h/mL; Cmax [3, 8]: 8.87 ± 5.97 ng/mL; Cmax [3, 9]: 3.34 ± 1.12 ng/mL; MRT [3, 8]: 40.2 ± 21.7 h; MRT [3, 9]: 63.7 ± 34.4 h; Tmax ([3]; male, Sprague-Dawley, rat, plasma, po, 8 g/kg, Tmax, sham group (SG) rats, oral administration of QSKL, plasma, mean ± SD, n = 6): 1.46 ± 1.35 h; half-life ([3]; male, Sprague-Dawley, rat, plasma, po, 8 g/kg, t1/2, model group (MG, myocardial ischemia) rats, oral administration of QSKL, plasma, mean ± SD, n = 6): 1670 ± 852 min; half-life ([3]; male, Sprague-Dawley, rat, plasma, po, 8 g/kg, t1/2, sham group (SG) rats, oral administration of QSKL, plasma, mean ± SD, n = 6): 2590 ± 1520 min; shape of plasma concentration-time profile ([3]; rats, after oral dosing QSKL 8.0 g/kg): Multiple-peak profiles

Compound | AUC(0-t) [1] [ng·h/mL] | AUC(0-inf) [1] [ng·h/mL] | Tmax [1] [min] | AUC0–t [2] [ng·h/mL] | MRT [1] [h] | half-life ([1]; t1/2) [min] | MRT [2] [h] | Cmax [1] [ng/mL] | AUC0–∞ [2] [ng·h/mL] | AUC(0-t) [1, 4] [ng·h/mL] | AUC(0-t) [1, 5] [ng·h/mL] | AUC(0-inf) [1, 4] [ng·h/mL] | AUC(0-inf) [1, 5] [ng·h/mL] | Cmax [1, 4] [ng/mL] | Cmax [1, 5] [ng/mL] | MRT [1, 4] [h] | MRT [1, 5] [h] | Tmax [1, 4] [min] | Tmax [1, 5] [min] | distribution in rat plasma (quantifiable or not) [3] | also measured
C=C[C@H]1[C@H](O[C@@H]2O[C@H](CO)[C@@H](O)[C@H](O)[C@H]2O)OC=C2C(=O)OCC[C@H]21 [sweroside] | 210 ± 75.7 | 294 ± 94.2 | 94.8 ± 78.6 | 247 ± 58.0 | – | – | – | 28.9 ± 14.3 | 281 ± 53.4 | – | – | – | – | – | – | – | – | – | – | – | –
Cc1cccc2c3c(ccc12)C1=C(C(=O)C3=O)[C@@H](C)CO1 [dihydrotanshinone I] | 4.99 ± 2.18 | 4.47 ± 0.864 | 480 | 4.67 ± 2.23 | 8.22 ± 1.2 | 234 ± 51.5 | 14.8 ± 9.29 | 0.618 ± 0.25 | 5.98 ± 5.34 | – | – | – | – | – | – | – | – | – | – | – | –
C[C@H]1COC2=C1C(=O)C(=O)c1c2ccc2c1CCCC2(C)C [cryptotanshinone] | 8.77 ± 2.26 | 12 ± 5.01 | – | 10.2 ± 2.21 | 19.3 ± 6.01 | 732 ± 312 | 25.6 ± 20.1 | 0.898 ± 0.29 | 16.4 ± 8.86 | – | – | – | – | – | – | – | – | – | – | – | –
